Measured values: US7645788B2, “Tetramerous derivative of indole-3-carbinol with anti-carcinogenic activity and method of synthesis of said derivative” (Universita' Degli Studi Di Urbino, priority 2001, dated 2010)

Legend:
[1] = test system: inhibitor p27; assay: Western blot, level of protein p27 in MCF-7; format: cell-based, human; details: MCF-7, same concentrations as for cdk6, FIG. 7
Excerpt: (§1) SDS-PAGE (Laemmli U.K. 1970, Nature 227, 680-685) and Western Blot (Towbin H., Staehelin T., Gordon J. 1979, Proc. Natl:Acad. Sci. USA 76, 4350-4354) techniques have been used to analyze the expression of proteins known as fundamental targets (markers) in the control of the cellular cycle, whose modifications often lead to an uncontrolled cell proliferation: cyclin-dependent kinase cdk6 (Cover C. M., et al, 1998, J. Biol. Chem. 273, 3838-3847), inhibitor p27 (Wang X., et al., 1997, Oncogene 15, 2991-2997; Vidal A., Koff A. 2000, Gene 247, 1-15) and retinoblastoma Rb (Dyson N. 1998, Genes & Development 12, 2245-2262; Guardavaccaro D., et al., 2000, Mol. Cell. Biol. 20 (5), 1797-1815).
(§2) After growing the cells as previously described, the cell cultures undergo the action of increasing doses of tetramerous derivative. Then culture samples are taken and the cells are lysated with B buffer (Hepes 20 mM pH 7.5, NaCl 420 mM, MgCl2 1.5 mM, EDTA 0.2 mM, glycerol 25%) in presence of antiproteolytic agents Nonidet P40 0.5% (v/v), kept under ice for 20 minutes and centrifuged at 12,000 rpm for 10 minutes at 4° C.
(§3) The cell lysate (supernatant liquor) is then diluted 1:1 with Sample Buffer 2× and charged into SDS-PAGE at 12% of acrylamide following Laemmli's method (Laemmli U.K. 1970, Nature 227, 680-685). […]

[2] = test system: inhibitor p27; assay: Western blot, p27 in MDA-MB-234; format: cell-based, human
Excerpt: as §1
as §2, with “C. […]” for “C.”
(§4) Said markers are then evaluated as previously described on estrogen-negative cell line MDA-MB-234.

[3] = test system: MDA-MB-234 cells (negative for estrogen receptors); assay: Anti-proliferative effect, [3H]-thymidine incorporation into DNA; format: cell-based, human; details: line MDA-MB-234, increasing concentrations, up to 72 hours, FIG. 2
Protocol: (§5) The activity of the tetramerous derivative has been evaluated both in breast cancer cells grown in laboratory expressing estrogen receptors (line MCF-7) and in cells which are negative for said receptors (line MDA-MB-234).
(§6) MCF-7 and MDA-MB-234 cells have been grown in laboratory in a DMEM medium added with 10% of bovine fetal serum, 1% of a penicillin-streptomycin solution, 1% of a solution of non-essential amino acids, 2 mM glutamine and for MCF-7 also with 10 ug/ml of insulin. For the tests the cells are taken and used in their logarithmic growth phase, suspending them again the same fresh medium and exposing them to the tetramerous derivative up to 72 hours at 37° C. in an atmosphere with 5% of CO2. Before the treatment the cells are grown for some hours so as to adhere well to the plastic and start proliferating. In the tests concerning the evaluation of the anti-proliferative activity the synthesis of DNA is evaluated by adding to the cultures 3 μCi/ml of [3H]-thymidine 6 hours before the end of the treatment.
(§7) The cells are exposed during the culture to increasing concentrations of tetramerous derivative, then evaluating the degree of inhibition of their proliferation by incorporating into the DNA tritium-added thymidine (Cover C. M. et al., 1998, Journal of Biological Chemistry no. 273, page 3838-3847).

[4] = test system: MCF-7 cells (breast cancer cells expressing estrogen receptors); assay: as above; format: cell-based, human; details: line MCF-7, increasing concentrations, up to 72 hours, FIG. 1
Protocol: as §5, §6, §7

[5] = test system: retinoblastoma Rb; assay: Western blot, phosphorylation of Rb factor (pRb); format: cell-based; details: Homo sapiens, FIG. 9
Excerpt: as §1, §2, §3

[6] = test system: cyclin-dependent kinase cdk6; assay: Western blot, level of expression of cdk6 in MCF-7; format: cell-based, human; details: FIG. 6
Excerpt: as §1, §2, §3

[7] = test system: enzyme cdk6; assay: Western blot, cdk6 in MDA-MB-234; format: cell-based, human
Excerpt: as §1
as §2, with “C. […]” for “C.”
as §4

[8] = test system: MCF-7 cells; assay: Cytotoxicity, vital cell count with trypan blue; format: cell-based, human
Protocol: (§8) In a second set of tests the activity of the tetramerous derivative on the two cell lines has been evaluated as cytotoxicity using a method (Magnani M. et al., 1995, Biochemical Journal no. 312, page 115-123) which allows to recognize vital from dead cells.
(§9) MCF-7 and MDA-MB-234 cells have been grown as previously described. Then, after 24 and after 72 hours of exposition to the tetramerous derivative they are taken and counted in duplicate in a hemocytometer using trypan blue dye to exclude dead cells.

[9] = test system: MDA-MB-234 cells; assay: Cytotoxicity, vital cell count with trypan blue; format: cell-based, human; details: MDA-MB-234, FIG. 4
Protocol: as §8, §9

SMILES: c1ccc2c3c([nH]c2c1)Cc1c([nH]c2ccccc12)Cc1c([nH]c2ccccc12)Cc1c([nH]c2ccccc12)C3 [tetramerous derivative]
- level of protein p27 [1]: increases
- level of inhibitor p27 [2]: increase
- inhibition of cell proliferation [3]: inhibits in a dose-dependent way
- inhibition of cell proliferation [4]: inhibits in a dose-dependent way
- inhibition at 30 µM [5]: 60%
- level of expression of cdk6 ([6]; MCF-7, 15 μM): great reduction
- level of expression of cdk6 ([6]; MCF-7, 50 μM): sudden decrease
- level of enzyme cdk6 [7]: reduction
- toxicity (percentage of vital cells) in relation to time of administration ([8]; MCF-7, 24 and 72 hours, FIG. 5): time-dependent
- toxicity (percentage of vital cells) in relation to amount administered ([8]; MCF-7, FIG. 3): dose-dependent
- toxicity (percentage of vital cells) in relation to amount administered [9]: dose-dependent
